Experimental data published in patent publication US4769389A, “Oxygenated-alkyl derivatives of glutamic and aspartic acids with antagonistic activity to bio-active polypeptides and a method for their preparation” (priority 1985, dated 1988).
Values after ≈ are worked out from the molar mass of the structure shown. Read-outs that look alike come from different tables or passages of the source.

Assays:
guinea pig gall bladders = assay: Anti-CCK-8 activity on guinea-pig gallbladders in situ (in vivo); settings: Cavia porcellus, iv; CCK-8 10 ng/kg i.v.; compound i.v.; read-out: ID50, anti-CCK-8 activity in situ
Procedure: In order to confirm the evidence of the studies in vitro, several of the more interesting compounds were tested in vivo with the use of guinea-pig gallbladders in situ.
The method used was that described by Ljungberg (Svensk. Farm. Tidskr. 69, 351-354, 1964).
Guinea-pigs having a weight of about 400 g anaesthetised with urethane were used; the substances being tested were administered intravenously (i.v.) into the jugular vein.
The responses of the gallbladder to the substances being tested were detected by means of a force transducer and recorded by means of a microdynamometer. 10 ng/kg of CCK 8 were chosen as the optimum contracting dose. The antagonistic compounds tested were administered in increasing doses so as to enable the calculation of an ID50 value, that is the dose (in mg/kg i.v.) having a 50% inhibiting effect against contractions induced by 10 ng/kg i.v. of CCK-8.

guinea-pig gallbladder = assay: Anti-CCK activity on guinea-pig gallbladders in vitro (contraction by CCK-8); settings: for IC50: Cavia porcellus, CCK-8 10 ng/ml, in vitro
Procedure: ANTI-CCK ACTIVITY ON GUINEA-PIG GALLBLADDERS IN VITRO A longitudinal strip of guinea-pig gallbladder is placed in a bath for isolated organs in Krebs at a temperature of 32° C. and oxygenated continuously with an oxygen-CO2 mixture (95-[…]). The isometric contractions were detected by means of a force transducer and recorded. […] The results obtained are shown in Table 3 which gives the compounds tested and the IC50 values found which were calculated by the method of regression in a test of at least three experiments for each compound studied.

in vivo = settings: mouse, iv
digestive tract = assay: Antispastic activity, vegetable carbon test (speed of transit through stomach and intestine) in mice; format: in vivo; settings: Mus musculus, ip, read-out: A[…] ED50 (dose which reduces the intestinal transit time of the carbon by 50%), intraperitoneally
Description: The anti-spastic activity which the present compounds exert on the whole of the digestive tract is also considerable. Measured in mice with the vegetable carbon test (speed of transit through the stomach and intestine) this activity is illustrated in the following table: […]

[1] = tested on: pancreatitis in mice induced experimentally by cerulein; assay: Pancreatitis induced by cerulein in mice; format: in vivo; settings: for ED50: Mus musculus, ip, cerulein, mice
Procedure: Adult male mice received six injections of cerulein (Takus) (50 mcg/kg) each hour for six hours.
The compound was administered 30 minutes before each administration of cerulein. Nine hours after the beginning of the treatment, the blood was taken from the rectro-orbitory plexus after anaesthesia with ether, the animals were killed and the pancreas removed and weighed.

colon of rabbits = assay: Antispastic activity in the colon of rabbits stimulated with CCK-8; format: in vivo, rabbit; design: Antispastic activity in colon, EXPERIMENT 1 / Antispastic activity in colon, EXPERIMENT 2: unit not given here; settings: CCK 100 ng/kg
Procedure: The abdomen of anaesthetised rabbit is cut open to display the tranverse colon. A small balloon full of water is inserted at an established point and connected to a pressure transducer by means of a polyethylene cannula filled with H2 O.
The optimum sensitivity being fixed in relation to the physiological contractions, the products were administered through the femeral vein. Contractions were induced by the administration of 100 ng/kg of CCK.

[2] = tested on: pancreatitis in rats induced experimentally by taurocholate; assay: Pancreatitis induced by sodium taurocolate in rats; format: in vivo; settings: for ED50: Rattus norvegicus, ip, taurocholate, rats
Procedure: The products under examination were administered intraperitoneally (i.p.) 30 minutes before the operation and 3 hours after the operation. Six hours after the laparatomy the blood was removed from the retro-orbitory plexus after anaesthesia with ether, the animals were killed and the pancreas was removed and weighed. The activity of the serum amylase was determined by the method described above.

COCCCN(CCCC(C)(C)C)C(=O)C(CCC(=O)O)NC(=O)c1ccc(Cl)c(Cl)c1 (centres unmarked) [Compound 18]
ED50 (guinea pig gall bladders): 6.79 mg/kg
IC50 (guinea-pig gallbladder): 4.8 µg/mL (≈ 9.81 µM)

CCCCCN(CCCOC)C(=O)C(CCC(=O)O)NC(=O)c1cccc(Cl)c1 (centres unmarked) [Compound 13]
ED50 (guinea pig gall bladders): 6.7 mg/kg
IC50 (guinea-pig gallbladder): 8.9 µg/mL (≈ 20.8 µM)

CCCCCN(CCCOC)C(=O)C(CCC(=O)O)NC(=O)c1ccc(C)c(C)c1 (centres unmarked) [Compound 7]
ED50 (guinea pig gall bladders): 0.65 mg/kg
LD50 (in vivo): 440 mg/kg
selectivity ratio (in vivo): 677
ED50 (digestive tract): 33.9 mg/kg
IC50 (guinea-pig gallbladder): 0.9 µg/mL (≈ 2.14 µM)

CCCCCN(CCOCC)C(=O)C(CCC(=O)O)NC(=O)c1ccc(Cl)c(Cl)c1 (centres unmarked) [Compound 2]
ED50 (guinea pig gall bladders): 0.1 mg/kg
AMYLASE IN THE SERUM ([1]; 5 mg/kg ip + cerulein): 54.7 U/ml
INHIBITION OF WEIGHT INCREASE ([1]; 5 mg/kg ip + cerulein): 55.2%
INHIBITION OF WEIGHT INCREASE (pancreas) ([1]; 5 mg/kg ip + cerulein): 24.5%
RATIO WEIGHT OF PANCREAS / ANIMAL WEIGHT ([1]; 5 mg/kg ip + cerulein): 0.54%
AMYLASE IN THE SERUM ([1]; 7.5 mg/kg ip + cerulein): 21.7 U/ml
INHIBITION OF WEIGHT INCREASE ([1]; 7.5 mg/kg ip + cerulein): 88.3%
INHIBITION OF WEIGHT INCREASE (pancreas) ([1]; 7.5 mg/kg ip + cerulein): 61.2%
RATIO WEIGHT OF PANCREAS / ANIMAL WEIGHT ([1]; 7.5 mg/kg ip + cerulein): 0.45%
AMYLASE IN THE SERUM ([1]; 10 mg/kg ip + cerulein): 11.8 U/ml
INHIBITION OF WEIGHT INCREASE ([1]; 10 mg/kg ip + cerulein): 98.3%
INHIBITION OF WEIGHT INCREASE (pancreas) ([1]; 10 mg/kg ip + cerulein): 89.8%
RATIO WEIGHT OF PANCREAS / ANIMAL WEIGHT ([1]; 10 mg/kg ip + cerulein): 0.38%
ED50 ([1]; read-out: ED50 (inhibition of weight increase)): 4.6 mg/kg
ED50 ([1]; read-out: ED50, inhibition of weight increase of the pancreas): 6.3 mg/kg
LD50 (in vivo): 338 mg/kg
selectivity ratio (in vivo): 3380
ED50 (digestive tract): 14 mg/kg
IC50 (guinea-pig gallbladder): 0.1 µg/mL (≈ 0.217 µM)
50% antagonising concentration relative to that of the specific agonist (guinea-pig gallbladder; vs CCK-8 10 ng/ml): about 10 times
Antispastic activity in colon, EXPERIMENT 1 (colon of rabbits; 0.3 mg/kg i.v.): -9.8
Antispastic activity in colon, EXPERIMENT 2 (colon of rabbits; 0.3 mg/kg i.v.): -27.2
Antispastic activity in colon, EXPERIMENT 1 (colon of rabbits; 1 mg/kg i.v.): -45.1
Antispastic activity in colon, EXPERIMENT 2 (colon of rabbits; 1 mg/kg i.v.): -39.8
Antispastic activity in colon, EXPERIMENT 1 (colon of rabbits; 3 mg/kg i.v.): -88.0
Antispastic activity in colon, EXPERIMENT 2 (colon of rabbits; 3 mg/kg i.v.): -92.4
ED50 (colon of rabbits; Oryctolagus cuniculus, iv): 1.47 mg/kg
AMYLASE IN THE SERUM ([2]; 5 mg/kg i.p. + taurocholate): 10.6 U/ml
INHIBITION OF AMYLASE INCREASE ([2]; 5 mg/kg i.p. + taurocholate): 28.2%
INHIBITION OF WEIGHT INCREASE ([2]; 5 mg/kg i.p. + taurocholate): 44.4%
RATIO WEIGHT OF PANCREAS / ANIMAL WEIGHT ([2]; 5 mg/kg i.p. + taurocholate): 0.50%
AMYLASE IN THE SERUM ([2]; 10 mg/kg i.p. + taurocholate): 8.9 U/ml
INHIBITION OF AMYLASE INCREASE ([2]; 10 mg/kg i.p. + taurocholate): 71.8%
INHIBITION OF WEIGHT INCREASE ([2]; 10 mg/kg i.p. + taurocholate): 63.0%
RATIO WEIGHT OF PANCREAS / ANIMAL WEIGHT ([2]; 10 mg/kg i.p. + taurocholate): 0.45%
AMYLASE IN THE SERUM ([2]; 20 mg/kg i.p. + taurocholate): 7.7 U/ml
INHIBITION OF AMYLASE INCREASE ([2]; 20 mg/kg i.p. + taurocholate): 102.6%
INHIBITION OF WEIGHT INCREASE ([2]; 20 mg/kg i.p. + taurocholate): 74.1%
RATIO WEIGHT OF PANCREAS / ANIMAL WEIGHT ([2]; 20 mg/kg i.p. + taurocholate): 0.42%
ED50 ([2]; read-out: ED50, inhibition of amylase increase): 8.6 mg/kg
ED50 ([2]; read-out: ED50, inhibition of weight increase): 10.1 mg/kg

CCCCCN(CCCOC)C(=O)C(CC(=O)O)NC(=O)c1ccc(Cl)c(Cl)c1 (centres unmarked) [Compound 20]
ED50 (guinea pig gall bladders): 0.84 mg/kg
LD50 (in vivo): 362 mg/kg
selectivity ratio (in vivo): 431
ED50 (digestive tract): 27.9 mg/kg
IC50 (guinea-pig gallbladder): 0.9 µg/mL (≈ 2.01 µM)

CCCCCN(CCCO)C(=O)C(CCC(=O)O)NC(=O)c1ccc(Cl)c(Cl)c1 (centres unmarked) [Compound 6]
ED50 (guinea pig gall bladders): 8.4 mg/kg
IC50 (guinea-pig gallbladder): 0.3 µg/mL (≈ 0.671 µM)

CCCCCN(CCCOC)C(=O)C(CCC(=O)O)NC(=O)c1ccc(C)cc1 (centres unmarked) [Compound 9]
ED50 (guinea pig gall bladders): 3.85 mg/kg
IC50 (guinea-pig gallbladder): 4 µg/mL (≈ 9.84 µM)

CCCCCCN(CCCOC)C(=O)C(CCC(=O)O)NC(=O)c1ccc(Cl)c(Cl)c1 (centres unmarked) [Compound 17]
ED50 (guinea pig gall bladders): 3.25 mg/kg
IC50 (guinea-pig gallbladder): 1.6 µg/mL (≈ 3.37 µM)

CCCCCN(CCCOC)C(=O)C(CC(=O)O)NC(=O)c1ccc(C)c(C)c1 (centres unmarked) [Compound 21]
ED50 (guinea pig gall bladders): 3.69 mg/kg
IC50 (guinea-pig gallbladder): 4.7 µg/mL (≈ 11.6 µM)

CCCCCN(CCCOC(C)C)C(=O)C(CCC(=O)O)NC(=O)c1ccc(Cl)c(Cl)c1 (centres unmarked) [Compound 4]
ED50 (guinea pig gall bladders): 5.08 mg/kg
IC50 (guinea-pig gallbladder): 3 µg/mL (≈ 6.13 µM)
